Where a SMILES comes first, the peptide text is derived from it.
logP	Compound
2.07	CC(C)CCCNc1ncnc2c1ncn2C1OC(CO)C(O)C1O (stereo not drawn)
0.54	CCCNc1ncnc2c1ncn2C1OC(CO)C(O)C1O (stereo not drawn)
-0.72	CCC(=O)NCc1c(O)c(=O)cc(C)n1C
2	CCCCC(=O)c1ccncc1
-2.19	CC(NC(=O)C(NC(=O)C(N)Cc1ccccc1)C(C)C)C(=O)O (stereo not drawn) (H-Phe-Val-Ala-OH; configuration not given here)
3.91	O=c1cc(-c2cccc(Cl)c2)oc2ccccc12
6.13	Clc1ccc2oc3c(Cl)c(Cl)cc(Cl)c3c2c1
6.2	Cc1cc(Cl)c(C(C)C)c(Cl)c1Cl
-2.6	CCC(C)C(NC(=O)C(C)N)C(=O)O (stereo not drawn)
2.2	O=C1C=C(N2CCOCC2)CN1c1ccc(F)c(Cl)c1
1.32	CCCSCc1cc(=O)c(O)co1
-0.33	NC(=O)c1cccc2nc(N)nc(N)c12
3.85	O=C(NCC(F)(F)F)NS(=O)(=O)c1cnccc1NC1CCCCCC1
4.47	Clc1nc(-c2ccccc2)nc2ccccc12
-1.68	CC(C)C(NC(=O)C(N)Cc1ccccc1)C(=O)O (stereo not drawn) (H-Phe-Val-OH; configuration not given here)
3.3	Cc1nc2c3c(c(C(=O)N(C)C)cn2c1C)CCC(c1ccccc1)O3 (stereo not drawn)
4.3	CCCCCC(=O)OCC(=O)C1(O)C(C)CC2C3CCC4=CC(=O)C=CC4(C)C3(F)C(O)CC21C (stereo not drawn)
2.07	COc1ccc2c(c1)C(=O)N(CCO[N+](=O)[O-])CO2
2.56	Cc1ccc(CO)c(C=NNC(=O)c2ccc(O)cc2)c1O
4	Cc1nc2c3c(c(C(=O)NC4CC4)cn2c1C)CCC(c1ccccc1)O3 (stereo not drawn)
2.05	CC(=O)c1ccc([N+](=O)[O-])cc1O
3.27	CC(C)NC(=NC#N)NS(=O)(=O)c1cnccc1Nc1ccc(Cl)c(C(F)(F)F)c1
-2.33	CC(C)C(NC(=O)C(N)Cc1ccccc1)C(=O)NCC(=O)O (stereo not drawn) (H-Phe-Val-Gly-OH; configuration not given here)
1.65	CNc1ccc2cc3ccc4c(c3nc2c1CO)COCN4
2.05	CCNC(=NC#N)NS(=O)(=O)c1cnccc1NC1CCCCCCC1
-0.34	CC(C)NC(=O)Cn1cccc(O)c1=O
2.83	Clc1ccc(/C=N/OCCc2nc(-c3ccccc3)n[nH]2)cc1

logP	Compound
3.49	CC(C)OC(=O)C1(S(=O)(=O)c2ccc(Cl)cc2)CCCCC1
2.8	NC1=NCC(COc2ccc(-c3ccccc3)cc2)O1 (stereo not drawn)
1.09	O=C(c1ccccc1)c1ccnnc1
3.01	Cc1ccc(CO)c(C=NNC(=O)c2ccccc2)c1O
1.45	Cc1ccc(C)c(-n2nnnc2N)c1
0.45	CN(C)CCOC(=O)c1ccc(S(C)(=O)=O)cc1
-0.2	CC1CC(N)CN1c1nc2c(cc1F)c(=O)c(C(=O)O)cn2-c1ccc(F)cc1F (stereo not drawn)
2.52	CON=C(C(=O)NC1C(=O)N2C(C(C)OC(=O)OC3CCCCC3)=CCSC12)c1csc(N)n1 (stereo not drawn)
3.56	CCOc1ccc(NC(=O)OC(C)c2ccccc2)cc1OCC (stereo not drawn)
-0.06	O=C(c1ccccn1)n1c(=O)[nH]cc(F)c1=O
3.28	Cc1cc2c(o1)c(C)cc1c(C)cc(=O)oc12
0.53	CC(C)Nc1nc(=O)n(C(C)C)c(=O)n1C
1.5	CC(=O)Nc1ccc(F)cc1F
6.38	Cc1ccc(Cl)c(Cc2ccc(Cl)cc2Cl)c1
2.72	CCOc1ccccc1CNc1[nH]cnc2ncnc1-2
1.26	O=c1nc(Nc2ccccc2)[nH]c2c1ncn2CCCCO
2.08	O=c1cc(CSc2nc3ccccc3s2)occ1O
3.68	CC(C)NCC(O)COc1ccccc1C1CCCCC1 (stereo not drawn)
2.3	O=C1C=C(N2CCCC2)C(=O)N1c1ccc(F)cc1
0.48	CC(C)Nc1ncnc2c1ncn2C1OC(CO)C(O)C1O (stereo not drawn)
2.4	CCc1cccc(Nc2ccncc2S(=O)(=O)NC(=NC#N)NC(C)C)c1
-2.3	CCC(C)C(NC(=O)C(NC(=O)C(N)CC(C)C)C(C)O)C(=O)O (stereo not drawn) (H-Leu-Thr-Ile-OH; configuration not given here)
2.46	NC(=O)C(CCN1CCCCC1)c1ccccc1Cl (stereo not drawn)
3.71	CCOc1cc2ncnc(Nc3cccc(F)c3)c2cc1OCC
1.28	CCC(C)NC(=O)N1C(=O)N(C)CC1O (stereo not drawn)
3.46	CCCCCCNC1=NS(=O)N=C1NCCSCc1ccc(CN(C)C)o1 (stereo not drawn)

Compound	logP
O=C1CC=C2C3CC4N(CCC45c4ccccc4N1C25)C/C3=C\CO (stereo not drawn)	1.37
COC1CC(OC2C(O)CC(OC3CCC4(C)C(CCC5C4CCC4(C)C(C6=CC(=O)OC6)CCC54O)C3)OC2C)OC(C)C1OC1CC(O)C(O)C(C)O1 (stereo not drawn)	3.11
CCc1cccc(COC(=O)C2C(C=C(C)C(=O)OC)C2(C)C)c1 (stereo not drawn)	5.42
C=CCc1c(OC)cc(Cc2cnc(N)nc2N)cc1OCC	2.66
CC(C)=CC1C(C(=O)OCc2cccc(I)c2)C1(C)C (stereo not drawn)	6.61
CCCN(CCc1cccs1)C1CCc2c(O)cccc2C1 (stereo not drawn)	4.7
Cc1nccc2c1[nH]c1cc(O)ccc12	2.84
Cc1cn(C2C=CC(COP3(=O)OCc4cc(Cl)ccc4O3)O2)c(=O)[nH]c1=O (stereo not drawn)	0.88
Cc1cc(C)c2c(c1)COP(=O)(OCC1C=CC(n3cc(C)c(=O)[nH]c3=O)O1)O2 (stereo not drawn)	1.18
Clc1cc2c(c(Cl)c1Cl)Oc1c(Cl)ccc(Cl)c1O2	6.24

Reference: the OPERA property sets (Mansouri et al. 2018)
